Assay results: PMC11721672, “Design, Structure–Activity Relationships, and Computational Modeling Studies of a Series of α-Helix Biased, Ultra-Short Glucagon-like Peptide-1 Receptor Agonists” (Molecules, 2024)
Like-named read-outs stand apart in the source and are kept apart here.

Tests used:
[1] = target: human GLP-1 receptor (hGLP-1R); set-up: method as in PMID 31031702; conditions: read-out: potency at the human GLP-1 receptor; cited from earlier work
hGLP1 receptor = target: T1, hGLP1 receptor (Homo sapiens, UniProt P43220); assay: GLP-1 receptor agonism assay (HTRF cAMP, HEK cells co-expressing hGLP1 receptor and CRE-Luciferase); assay type: cell-based; conditions: for EC50: 0% HSA, read-out: cAMP EC50
T1 construct: expressed in transfected cells; host or cells: HEK (human embryonic kidney) cells co-expressing hGLP1 receptor and CRE-Luciferase
T1 sequence (P43220 24-463): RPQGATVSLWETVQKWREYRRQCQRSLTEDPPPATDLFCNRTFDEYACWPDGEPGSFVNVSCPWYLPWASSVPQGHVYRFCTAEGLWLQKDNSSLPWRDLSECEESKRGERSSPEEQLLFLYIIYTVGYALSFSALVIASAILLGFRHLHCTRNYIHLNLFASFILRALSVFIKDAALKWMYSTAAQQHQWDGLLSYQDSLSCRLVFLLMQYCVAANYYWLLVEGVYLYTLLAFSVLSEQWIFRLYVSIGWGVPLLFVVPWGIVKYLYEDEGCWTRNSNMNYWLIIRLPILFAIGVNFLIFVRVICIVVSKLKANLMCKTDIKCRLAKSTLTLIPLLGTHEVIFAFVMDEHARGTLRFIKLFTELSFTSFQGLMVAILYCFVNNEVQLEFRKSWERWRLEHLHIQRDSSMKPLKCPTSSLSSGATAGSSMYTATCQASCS

Question: Which EC50 [1] does the source give for semaglutide here?
Answer: Its EC50 is 0.0062 nM.

Question: With `C[C@@H](O)[C@H](NC(=O)CNC(=O)[C@H](CCC(=O)O)NC(=O)C(C)(C)NC(=O)[C@@H](N)Cc1c[nH]cn1)C(=O)N[C@@H](Cc1ccccc1)C(=O)N[C@H](C(=O)N[C@@H](CO)C(=O)N[C@@H](CC(=O)O)C(=O)N[C@@H](Cc1ccc(-c2ccccc2)cc1)C(=O)N[C@@H](Cc1ccc(-c2ccccc2)cc1)C(N)=O)[C@@H](C)O` [RXL-100, His-Aib-Glu-Gly-Thr-Phe-Thr-Ser-Asp-Bip-Bip-NH2] as the compound, how does the Emax (hGLP1 receptor; HEK293, Table 6 potency profile) read?
Answer: The Emax was 110%.

Question: And the EC50 (hGLP1 receptor; Table 1, Phe6 modifications, average of two independent experiments in triplicate (RXL-3039 tested once))?
Answer: Its EC50 is 0.5 nM.

Question: What about the EC50 (hGLP1 receptor; Table 2, Ala-scanning, >1000 nM = out of range) of the same compound?
Answer: The EC50 was 0.5 nM.

Question: And the EC50 (hGLP1 receptor; Table 3, Aib-scanning, >1000 nM = out of range)?
Answer: Its EC50 is 0.5 nM.
